Numbered stars: 1 amine (or outer) side, 2 acyl side, 3 side chain; on linkers, the order of the positions; unused ones are H or OH. Bridge positions count the residues as written; N and C are the ends. Square brackets hold non-standard residues; d marks the D form. Peptide text beside a SMILES is read from it. X1 = CC(=O)NC(C(=O)OC(C(C)C)C(N[*:1])C(=O)[*:2])C(O)C(C)C; PhLac = O=C(O)[CH](O)Cc1ccccc1; NMeT = CN[CH](C(=O)O)[CH](C)O; NMeA = CN[CH](C)C(=O)O; NMeDha = C=C(NC)C(=O)O
How the values were obtained:
[1] = system: MEG01 cells; assay: Dynamic mass redistribution (DMR) in MEG01 cells; assay type: cell-based, human; conditions: for DMR response to ATP after ADR inhibitors: ATP 50 μM; for PAGln-induced DMR response after ADR inhibitors: PAGln 100 μM, 30 min
Protocol: (§1) Before proceeding for the experiments, cells were subjected to overnight incubation in reduced serum media opti-MEM. […] The cells were briefly centrifuged at room temperature at low speed (100 g for 10-15 sec) to allow settling down the cells at the bottom of the plate. After that, cells were allowed to temperature equilibrate for 1 h at room temperature prior to run DMR measurement. Firstly, basal DMR responses were graphed for around 15 min to obtain a baseline read that defines the zero level and also ensures the signal is stable. […] DMR response signal was recorded for 60-90 minutes post compound of interest addition.

[2] = system: human platelet rich plasma (PRP); assay: Platelet aggregometry in platelet rich plasma; assay type: cell-based; conditions: inhibitor 10 μM; PAGln 100 μM; ADP 2 μM
Protocol: ADP (up to 4 μM), TRAP6 (up to 10 μM) and collagen (up to 1.0 μg/mL) were used as indicated to initiate aggregation with constant stirring (600 rpm).

[3] = target: T1, α2B ADR (Homo sapiens, UniProt P18089); assay: DMR in α2B-HEK293 (stable) cells; assay type: cell-based
T1 construct: expressed in transfected cells
T1 sequence (P18089 1-450): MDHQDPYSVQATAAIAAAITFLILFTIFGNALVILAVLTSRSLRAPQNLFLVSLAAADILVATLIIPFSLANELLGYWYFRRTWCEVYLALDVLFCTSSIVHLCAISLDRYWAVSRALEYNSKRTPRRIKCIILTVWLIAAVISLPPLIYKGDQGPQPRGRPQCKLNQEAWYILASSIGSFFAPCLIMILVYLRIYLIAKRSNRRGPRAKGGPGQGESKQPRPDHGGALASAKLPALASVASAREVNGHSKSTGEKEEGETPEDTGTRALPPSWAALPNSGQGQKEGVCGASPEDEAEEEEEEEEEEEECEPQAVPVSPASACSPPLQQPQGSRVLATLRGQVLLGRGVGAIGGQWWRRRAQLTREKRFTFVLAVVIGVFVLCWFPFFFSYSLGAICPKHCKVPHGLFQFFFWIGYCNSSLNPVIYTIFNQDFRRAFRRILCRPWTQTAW

[4] = target: T2, α2A ADR (Homo sapiens, UniProt P08913); assay: DMR in α2A-HEK293 (transient) cells; assay type: cell-based
T2 construct: DYK (FLAG, DYKDDDDK) (N); host or cells: HEK293 (transient, Lipofectamine 3000)
T2 sequence (P08913 1-465): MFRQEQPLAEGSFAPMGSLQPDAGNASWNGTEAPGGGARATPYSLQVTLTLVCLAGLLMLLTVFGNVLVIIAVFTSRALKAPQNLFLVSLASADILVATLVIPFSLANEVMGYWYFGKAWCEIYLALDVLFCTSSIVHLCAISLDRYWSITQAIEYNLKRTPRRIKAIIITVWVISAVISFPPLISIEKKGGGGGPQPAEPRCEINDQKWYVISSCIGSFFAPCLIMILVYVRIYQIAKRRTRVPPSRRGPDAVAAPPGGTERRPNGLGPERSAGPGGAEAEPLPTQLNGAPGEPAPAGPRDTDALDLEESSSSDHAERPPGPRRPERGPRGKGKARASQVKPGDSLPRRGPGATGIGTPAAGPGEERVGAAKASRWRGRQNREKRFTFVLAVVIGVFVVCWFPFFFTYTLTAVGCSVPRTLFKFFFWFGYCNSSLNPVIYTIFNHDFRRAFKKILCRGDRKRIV
Protocol: The cells were grown in DMEM (100 μL) media supplemented with FBS (10%), penicillin (100 U/mL) and streptomycin (100 μg/mL) in a humidified atmosphere at 37° C. in 5% CO2 for 1 day before proceeding for the DMR experiments. For gain of function studies of α2A ADR, parental HEK293 cells were transfected with pcDNA3.1(+)-N-DYK empty vector or with pcDNA3.1(+)-ADRA2A-N-DYK clone (clone id: OHu19050C-GenScript) using Lipofactamine 3000 Transfection kit-Invitrogen (Cat. L3000008). DMR studies were performed on transiently transfected cells after 2 days post transfection. Prior to run the DMR experiment, cells were washed with 1×HBSS buffer with HEPES (20 mM, pH 7.4) and allowed to temperature equilibrate for 1 h at room temperature in 100 μL of the same buffer. Basal DMR response were graphed for around 15 min to obtain a baseline read that defines the zero level and also ensures the signal is stable.

[5] = system: MEG01 cells; assay: cAMP assay in MEG01 cells; assay type: cell-based, human
Protocol: Real-time (RT) PCR in MEG01 cells: Total RNA was isolated from MEG01 cells following TRIZOL RNA isolation protocol post 40 h of siRNA transfection. […] Real time (RT) PCR was carried out following TaqMan Gene Expression Assays protocol using RT primers and probes of ADRA2A (assay Id Hs01099503_s1), ADRA2B (assay Id Hs00265081 s1) and ADRB2 (assay Id Hs00240532_s1) from ThermoFisher Scientific. cAMP assay in MEG01, Platelets and HEK293 cells: Intracellular cAMP levels were measured using CatchPoint Cyclic-AMP Fluorescent Assay Kit from molecular devices (Cat. R8089). Briefly, MEG01 cells were washed with 1×HBSS buffer with HEPES (20 mM; pH 7.4) and re-suspended in stimulation buffer (1×HBSS, HEPES (20 mM); pH 7.4, IBMX (0.5 mM), Rolipram (0.1 mM) and BSA (0.1%)). The cells were further seeded into 96 well cell culture plates with a density of ˜100 k cells per well in 100 μL stimulation buffer. Similarly, human washed platelets re-suspended very gently in stimulation buffer and seeded into a 96-well cell culture plates with ˜4-6 million platelets per well in 100 μL stimulation buffer. Both the MEG01 cells and platelets were kept thereafter at 37° C. incubator for 10 min before addition of the inhibitors or test compounds. Following incubation with stimulation buffer, 10 μL (10× concentration) of modulators/inhibitors (when necessary) were added and kept for 15 min at 37° C. […] The test compounds were made in buffer T (1×HBSS, HEPES (20 mM); pH 7.4, IBMX (0.5 mM) and Rolipram (0.1 mM)). The reaction was stopped by adding 50 μL of lysis buffer (provided in the kit CatchPoint Cyclic-AMP Fluorescent Assay Kit Cat. R8089-Molecular Devices), further added with IBMX (0.5 mM) and Rolipram (0.1 mM)) and agitated for 10 min in a plate shaker to facilitate cell lysis. Lysed cells are immediately proceeded to cAMP assay. For the quantification of cAMP, the lysed sample (40 μL), buffer control and cAMP calibrators were added in appropriate wells of a 96-well clear bottom, black wall cAMP assay plates (provided in the kit). Thereafter, reconstituted rabbit anti-cAMP antibody (40 μL) was added to all the wells and mix for 5 min on a plate shaker to ensure mixing. In the next step, reconstituted HRP-cAMP conjugate (40 μL) was added to every well, mixed properly and kept at room temperature for 2 h. The plate contents were aspirated thereafter and washed with wash buffer (300 μL (provided in the kit)) 4 times. Spotlight red substrate (provided in the kit) was added to each well minimizing the time between starting and finishing in dark. The plate was covered with aluminum foil and left at room temperature for at least 10 min before reading fluorescence intensity in a FlexStation 3 Multi-Mode Microplate Reader-Molecular devices. […] For cAMP assay in adherent cell lines, parental HEK293, and β2-HEK293 (stable) cells were seeded into 96-well cell culture microplates with approximately 50 k cells per well in DMEM (100 μL) media supplemented with FBS (10%), penicillin (100 U/mL) and streptomycin (100 μg/mL) in a humidified atmosphere at 37° C. in 5% CO2. Cells were grown for 24 h before proceeding for cAMP experiment following similar method as described for MEG01 cells. Intracellular Ca^2+ measurement: Intracellular Ca^2+ in MEG01, HEL92.1.7, parental HEK293, β2-HEK293 (stable) cells, empty vector (EV) transfected HEK293 cells, ADRA2A transfected HEK293 cells and in α2B-HEK293 stable cells was measured using FLIPR Calcium 5 Assay Kit-Molecular devices (Cat. R8186). […]

[6] = system: HEL92.1.7 cells; assay: Dynamic mass redistribution (DMR) in HEL92.1.7 cells; assay type: cell-based, human
Protocol: as §1

[7] = vs parental HEK293, PAGln 100 μM, B-HT933 50 μM

For `COC1(C2=NCCN2)COc2ccccc2O1` (stereo not drawn) [RX821002], the “DMR response to ATP after ADR inhibitors” value ([1]; inhibitor 10 μM) was “remained unchanged”, the “DMR response of B-HT933 after ADR inhibitor” value ([1]; B-HT933 50 μM, inhibitor 10 μM) was “appropriately inhibited” and the “PAGln-induced DMR response after ADR inhibitors” value ([1]; inhibitor 10 μM) was “substantially reduced”. The “PAGln induced hyperresponsiveness of platelet aggregation” value [2] was “attenuated the PAGln induced hyperresponsiveness”, the “B-HT933-elicited DMR response after ADR inhibitor” value [3] was “attenuated by RX821002” and the “PAGln-induced DMR response after ADR inhibitor” value ([3]; inhibitor 10 μM, 30 min) was “reversed”. For the same compound, the “B-HT933-elicited DMR response after ADR inhibitor” value [4] was “attenuated by RX821002” and the “PAGln-induced DMR response after ADR inhibitor” value ([4]; inhibitor 10 μM, 30 min) was “reversed”.

For `CC(C)NCC(O)COc1cccc2ccccc12` (stereo not drawn) [propranolol], the “DMR response to ATP after ADR inhibitors” value ([1]; inhibitor 10 μM) was “remained unchanged”, the “DMR response of isoproterenol (ISO) after ADR inhibitors” value ([1]; ISO 10 μM, inhibitor 10 μM) was “diminished” and the “PAGln-induced DMR response after ADR inhibitors” value ([1]; inhibitor 10 μM) was “substantially reduced”. The “PAGln induced hyperresponsiveness of platelet aggregation” value [2] was “attenuated the PAGln induced hyperresponsiveness”, the “intracellular cAMP production after ISO treatment, with ADR inhibitors” value [5] was “reduced” and the “PAGln induced intracellular cAMP production after ADR inhibitors” value ([5]; PAGln 100 μM, 5 min exposure, inhibitor 10 μM) was “inhibited PAGln (5 min exposure) induced intracellular cAMP production”.

With `N[C@@H](Cc1ccccc1)C(=O)O` [phenylalanine] the DMR response ([1]; addition of ligand) was “displayed no DMR response”.

With `C=C1C(=O)NC(C)C(=O)N(C)C(C)C(=O)NC(C(OC(=O)C(NC(C)=O)C(O)C(C)C)C(C)C)C(=O)N(C)C(C(C)OC)C(=O)OC(C)C(NC(C)=O)C(=O)OC(Cc2ccccc2)C(=O)N1C` (stereo not drawn) [YM-254890] (Ac-T[PhLac][NMeDha]A[NMeA][X1][NMeT](Me); ester 1-C; configuration not given here) the “PAGln induced DMR response after G-protein modulators” value [6] was “significant reduction in PAGln induced DMR response”.

In the case of `CCN1CCc2nc(N)oc2CC1` [B-HT933], the “agonist-evoked DMR response” value [3, 7] was “elevated B-HT933-elicited DMR response” and the “agonist-evoked DMR response” value [4, 7] was “elevated B-HT933-elicited DMR response”.
